Measurements: the supplement of paper PMC6045584
± gives the standard deviation of the averaged measurements.

Legend:
RESVERATROL = compound: Oc1ccc(/C=C/c2cc(O)cc(O)c2)cc1 [RESVERATROL]; experiment: area under dose-response curve of surviving fraction (unscaled, Aref=0) (surviving fraction x log10(nM)); higher = more resistant; conditions: exposure time: 5 days; dose range 0.5-1000 nM
In short: (§1)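 Inhibitor was applied to tumour cell lines at eight concentrations (0.5 to 1000 nM) for five days in 384-well plates. Luminescence from CellTiter-Glo, scaled to DMSO-only wells, gave surviving fractions in three screens per line, and these were fitted by 3-parameter logistic regression with the drc R package. The area under the curve is an unscaled activity area. Aref was 0, and dose was on a log10 scale.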

17-AAG = compound: C=CCNC1=C2C[C@@H](C)C[C@H](OC)[C@H](O)[C@@H](C)/C=C(\C)[C@H](OC(N)=O)[C@@H](OC)/C=C\C=C(/C)C(=O)NC(=CC1=O)C2=O [17-AAG]; experiment: as above; conditions: exposure time: 5 days; dose range 0.5-1000 nM
In short: as §1

SALINOMYCIN = compound: CC[C@@H](C(=O)[C@@H](C)[C@@H](O)[C@H](C)[C@@H]1O[C@@H]([C@@H](CC)C(=O)O)CC[C@@H]1C)[C@H]1O[C@]2(C=C[C@@H](O)[C@]3(CC[C@@](C)([C@H]4CC[C@](O)(CC)[C@H](C)O4)O3)O2)[C@H](C)C[C@@H]1C [SALINOMYCIN]; experiment: as above; conditions: exposure time: 5 days; dose range 0.5-1000 nM
In short: as §1

DOXORUBICIN [1] = compound: T1, COc1cccc2c1C(=O)c1c(O)c3c(c(O)c1C2=O)C[C@@](O)(C(=O)CO)C[C@@H]3O[C@H]1C[C@H](N)[C@H](O)[C@H](C)O1 [DOXORUBICIN]; experiment: as above; conditions: exposure time: 5 days; dose range 0.5-1000 nM
In short: as §1

FLUOROURACIL = compound: O=c1[nH]cc(F)c(=O)[nH]1 [FLUOROURACIL]; experiment: as above; conditions: exposure time: 5 days; dose range 0.5-1000 nM
In short: as §1

FLAVOPIRIDOL = compound: CN1CC[C@H](c2c(O)cc(O)c3c(=O)cc(-c4ccccc4Cl)oc23)[C@H](O)C1 [FLAVOPIRIDOL]; experiment: as above; conditions: exposure time: 5 days; dose range 0.5-1000 nM
In short: as §1

ABT-737 = compound: CN(C)CC[C@H](CSc1ccccc1)Nc1ccc(S(=O)(=O)NC(=O)c2ccc(N3CCN(Cc4ccccc4-c4ccc(Cl)cc4)CC3)cc2)cc1[N+](=O)[O-] [ABT-737]; experiment: as above; conditions: exposure time: 5 days; dose range 0.5-1000 nM
In short: as §1

2-METHOXYESTRADIOL = compound: COc1cc2c(cc1O)CC[C@@H]1[C@@H]2CC[C@]2(C)[C@@H](O)CC[C@@H]12 [2-METHOXYESTRADIOL]; experiment: as above; conditions: exposure time: 5 days; dose range 0.5-1000 nM
In short: as §1

DECITABINE = compound: Nc1ncn([C@H]2C[C@H](O)[C@@H](CO)O2)c(=O)n1 [DECITABINE]; experiment: as above; conditions: exposure time: 5 days; dose range 0.5-1000 nM
In short: as §1

VISMODEGIB = compound: CS(=O)(=O)c1ccc(C(=O)Nc2ccc(Cl)c(-c3ccccn3)c2)c(Cl)c1 [VISMODEGIB]; experiment: as above; conditions: exposure time: 5 days; dose range 0.5-1000 nM
In short: as §1

[2] = compound: CCN(CC)CCCCNc1ncc2cc(-c3cc(OC)cc(OC)c3)c(NC(=O)NC(C)(C)C)nc2n1; experiment: as above; conditions: exposure time: 5 days; dose range 0.5-1000 nM
In short: as §1

DOXORUBICIN [3] = compound: T1, DOXORUBICIN; experiment: surviving fraction relative to DMSO-only wells; higher = less growth inhibition; conditions: exposure time: 5 days
In short: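 Surviving fraction was calculated by normalising CellTiter-Glo luminescence to the median of DMSO-only wells. Tumour cell lines in log phase were seeded in 384-well plates at 250–500 cells per well, and 24 hours later were exposed continuously for five days to inhibitors at 0.5, 1, 5, 10, 50, 100, 500 and 1000 nM.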

LAPATINIB = compound: CS(=O)(=O)CCNCc1ccc(-c2ccc3ncnc(Nc4ccc(OCc5cccc(F)c5)c(Cl)c4)c3c2)o1 [LAPATINIB]; experiment: area under dose-response curve of surviving fraction (unscaled, Aref=0) (surviving fraction x log10(nM)); higher = more resistant; conditions: exposure time: 5 days; dose range 0.5-1000 nM
In short: as §1

Test System	area under dose-response curve (RESVERATROL)	area under dose-response curve (17-AAG)	area under dose-response curve (SALINOMYCIN)	area under dose-response curve (DOXORUBICIN [1])	area under dose-response curve (FLUOROURACIL)	area under dose-response curve (FLAVOPIRIDOL)	area under dose-response curve (ABT-737)	area under dose-response curve (2-METHOXYESTRADIOL)	area under dose-response curve (DECITABINE)	area under dose-response curve (VISMODEGIB)	area under dose-response curve [2]	surviving fraction (DOXORUBICIN [3]; 0.5 nM)	surviving fraction (DOXORUBICIN [3]; 1 nM)	surviving fraction (DOXORUBICIN [3]; 5 nM)	surviving fraction (DOXORUBICIN [3]; 10 nM)	surviving fraction (DOXORUBICIN [3]; 50 nM)	surviving fraction (DOXORUBICIN [3]; 100 nM)	surviving fraction (DOXORUBICIN [3]; 500 nM)	surviving fraction (DOXORUBICIN [3]; 1000 nM)	area under dose-response curve (LAPATINIB)
HCT15 LARGE INTESTINE	3.39	1.85	2.74	2.07	2.73	2.01	3.46	2.65	3.19	3.26	3.28	1.01 ± 0.016	0.986 ± 0.044	1.01 ± 0.045	0.987 ± 0.02	0.486 ± 0.044	0.18 ± 0.018	0.0863 ± 0.005	0.066 ± 0.0027	
HOS BONE	3.43	2.31	2.44	1.25	3.19	2.29	3.45	3.21	3.22	3.34		1.009 ± 0.0046	1 ± 0.028	0.686 ± 0.0056	0.352 ± 0.1	0.087 ± 0.0053	0.043 ± 0.007	0.024	0.0283 ± 0.0015	3.45
HT1080 SOFT TISSUE	3.35	2.11	3.16	1.29	3.06	2.07		3.11	3.03	3.25	3.39	0.992 ± 0.01	0.95 ± 0.041	0.553 ± 0.0044	0.333 ± 0.037	0.265 ± 0.0078	0.222 ± 0.018	0.0267 ± 0.00058	0.0437 ± 0.0045	3.4
MDAMB453 BREAST	3.63	1.3	3.04	2.24	3.14	2.12	3.59	3.02		3.16	3.28	1.05 ± 0.045	1.04 ± 0.065	1.07 ± 0.017	1.08 ± 0.044	0.723 ± 0.065	0.395 ± 0.066	0.0503 ± 0.0055	0.0433 ± 0.0023	3.21
MDAMB468 BREAST	3.56	2.41	3.08	2.09	2.83	2.15	3.62	3.5	2.63	3.19	3.27	0.897 ± 0.065	0.931 ± 0.075	0.992 ± 0.039	0.969 ± 0.013	0.49 ± 0.18	0.342 ± 0.006	0.11 ± 0.035	0.038 ± 0.0072	
RDES SOFT TISSUE	4.59	2.13	2.26	1.97	3.48	2.51	2.58		3.9		3.98	1.15 ± 0.035	1.15 ± 0.061	1.04 ± 0.05	1.25 ± 0.14	0.16 ± 0.021	0.0457 ± 0.004	0.087 ± 0.0098	0.0413 ± 0.0031	4.08
